# Where a name gives a salt, the structure may show the parent alone. Read-outs that look alike come from different tables or passages of the source.
# Legend:
# human PI3Kα protein = target: T1, human PI3Kα protein (Homo sapiens, UniProt P42336); test: PI3Kα enzyme assay (ADP-Glo); format: biochemical; settings: read-out: PI3Kα enzyme inhibitory activity
# T1 construct: purchased Carna Biosciences, Inc; host or cells: baculovirus expression system
# Summary of the method: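 Biotinylated human PI3Kα (baculovirus-expressed, 4.5 nmol/L) pre-incubated 15 min with compound in Tris-HCl pH 7.5, MgCl2, BSA; reaction 60 min at 25° C with 50 μmol/L PIP2 and 100 μmol/L ATP final. ADP quantified by ADP-Glo luminescence; IC50 calculated.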
# [1] = target: T2, GST fusion human ERK2 protein (Homo sapiens, UniProt P28482); test: ERK2 enzyme assay (1); format: biochemical; settings: read-out: ERK2 enzyme inhibitory activity (1)
# T2 construct: purchased Carna Biosciences, Inc; host or cells: E. coli expression system
# Procedure: In an ERK2 enzyme assay, GLUTATHIONE S-TRANSFERASE (GST) FUSION HUMAN ERK2 PROTEIN (manufactured by Carna Biosciences, Inc.), which was produced by using an E. coli expression system, was used.
# 12 μL of a reaction liquid (2.5 nmol/L ERK2, 100 mmol/L Hepes, 10 mmol/L MgCl2, 1.5 mmol/L DTT, 0.003% Brij35, pH 7.5) including ERK2 protein and a test compound having a predetermined concentration was allowed to stand at room temperature for 15 minutes. Then, 3 μL of a mixture liquid of FL-PEPTIDE8 (5-FAM-IPTSPITTTYFFFKKK-COOH) (manufactured by Caliper Life Sciences), which is substrate peptide, and ATP (manufactured by Sigma-Aldrich Co. LLC.) was added thereto such that the final concentrations thereof became 4.25 μmol/L and 43.1 μmol/L, respectively, and an enzyme reaction was performed by allowing to stand at 25° C. for 120 minutes.
# After the reaction, the enzyme reaction was stopped by adding 30 μL of a reaction stopper liquid (100 mmol/L HEPES, 11.2 mmol/L EDTA, 5.6% Brij35, pH 7.5) including a 0.5% COATING REAGENT 8 (trade name, manufactured by Perkin Elmer Inc.) thereto. Then, phosphorylated peptide and non-phosphorylated peptide were separated using LABCHIP EZ READER (trade name, manufactured by Caliper Life Sciences), and the porportion of the phosphorylated peptide was quantified.
# The inhibitory activities of the compounds were evaluated using IC50 (50% inhibitory concentration). The IC50 was calculated using XLFIT (trade name, manufactured by ID Business Solutions).
# [2] = 4.5 nmol/L PI3Kα, PIP2 50 μmol/L, ATP 100 μmol/L
# [3] = 2.5 nmol/L ERK2, ATP 43.1 μmol/L
# T1 sequence (P42336 whole entry): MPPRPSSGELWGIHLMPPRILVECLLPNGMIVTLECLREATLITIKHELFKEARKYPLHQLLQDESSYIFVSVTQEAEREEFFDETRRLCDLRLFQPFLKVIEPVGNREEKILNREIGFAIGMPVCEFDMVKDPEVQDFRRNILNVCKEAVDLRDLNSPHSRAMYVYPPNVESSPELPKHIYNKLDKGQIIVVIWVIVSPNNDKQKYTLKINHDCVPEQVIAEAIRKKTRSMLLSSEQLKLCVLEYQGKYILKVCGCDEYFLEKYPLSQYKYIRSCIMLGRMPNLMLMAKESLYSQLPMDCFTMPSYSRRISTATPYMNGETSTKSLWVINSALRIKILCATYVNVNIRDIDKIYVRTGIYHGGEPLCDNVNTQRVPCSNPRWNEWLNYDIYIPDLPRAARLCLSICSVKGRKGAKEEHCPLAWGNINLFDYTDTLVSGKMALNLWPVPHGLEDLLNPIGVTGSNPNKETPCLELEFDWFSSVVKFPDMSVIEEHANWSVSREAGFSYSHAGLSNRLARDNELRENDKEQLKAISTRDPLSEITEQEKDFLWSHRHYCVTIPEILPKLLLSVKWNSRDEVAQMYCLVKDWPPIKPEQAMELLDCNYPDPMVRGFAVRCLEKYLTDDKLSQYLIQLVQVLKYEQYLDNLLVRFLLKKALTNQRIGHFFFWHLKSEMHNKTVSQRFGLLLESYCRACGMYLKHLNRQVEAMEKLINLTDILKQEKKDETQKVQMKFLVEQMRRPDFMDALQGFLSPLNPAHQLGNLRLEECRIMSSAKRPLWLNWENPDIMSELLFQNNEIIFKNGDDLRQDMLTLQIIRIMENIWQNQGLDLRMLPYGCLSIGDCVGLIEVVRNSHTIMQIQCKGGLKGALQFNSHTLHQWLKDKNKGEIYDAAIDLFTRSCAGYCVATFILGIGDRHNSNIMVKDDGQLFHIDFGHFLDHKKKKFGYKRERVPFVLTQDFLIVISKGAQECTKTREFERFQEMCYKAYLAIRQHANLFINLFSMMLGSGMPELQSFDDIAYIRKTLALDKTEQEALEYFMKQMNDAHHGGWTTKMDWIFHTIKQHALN
# T1 sequence (P27986 whole entry partner): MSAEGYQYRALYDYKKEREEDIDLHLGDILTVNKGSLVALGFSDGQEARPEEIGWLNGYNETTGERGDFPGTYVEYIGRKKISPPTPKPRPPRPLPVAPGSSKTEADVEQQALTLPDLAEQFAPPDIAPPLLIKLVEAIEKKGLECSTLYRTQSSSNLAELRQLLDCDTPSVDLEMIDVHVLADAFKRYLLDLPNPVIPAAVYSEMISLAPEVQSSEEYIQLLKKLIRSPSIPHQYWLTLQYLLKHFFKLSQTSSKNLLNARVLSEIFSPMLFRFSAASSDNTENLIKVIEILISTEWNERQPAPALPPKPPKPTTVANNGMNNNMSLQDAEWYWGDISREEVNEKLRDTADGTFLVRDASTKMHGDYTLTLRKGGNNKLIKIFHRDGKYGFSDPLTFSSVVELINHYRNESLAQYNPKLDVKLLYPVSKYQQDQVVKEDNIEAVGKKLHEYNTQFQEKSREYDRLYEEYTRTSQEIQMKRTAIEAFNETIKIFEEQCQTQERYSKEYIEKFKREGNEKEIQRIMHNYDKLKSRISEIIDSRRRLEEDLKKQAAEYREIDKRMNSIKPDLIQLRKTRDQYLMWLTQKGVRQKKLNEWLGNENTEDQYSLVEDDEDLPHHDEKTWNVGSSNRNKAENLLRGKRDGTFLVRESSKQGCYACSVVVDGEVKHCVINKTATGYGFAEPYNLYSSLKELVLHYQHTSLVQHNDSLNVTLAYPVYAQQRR
# T2 sequence (P28482 whole entry, the tested form may be a part): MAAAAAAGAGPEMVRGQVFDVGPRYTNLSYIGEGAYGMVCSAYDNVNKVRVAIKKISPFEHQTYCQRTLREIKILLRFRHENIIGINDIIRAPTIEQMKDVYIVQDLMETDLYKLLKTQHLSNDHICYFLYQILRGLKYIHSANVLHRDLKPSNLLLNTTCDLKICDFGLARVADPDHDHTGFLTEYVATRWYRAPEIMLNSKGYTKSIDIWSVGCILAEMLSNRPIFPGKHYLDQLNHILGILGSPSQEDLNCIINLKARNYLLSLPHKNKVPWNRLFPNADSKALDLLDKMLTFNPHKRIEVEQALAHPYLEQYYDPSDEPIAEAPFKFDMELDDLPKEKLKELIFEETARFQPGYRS
IC50 (human PI3Kα protein; [2]) [µM],"IC50 [1, 3] [µM]",IC50 (human PI3Kα protein) [µM],IC50 ([1]; ERK2 enzyme assay (1)) [µM],Structure (SMILES)
< 1,< 1,,,CC(C)(C)c1cncc(Nc2cnc3ccc(Nc4nnc(C5CCCC5)s4)nc3c2)c1 [Example 0103]
,,< 1,< 1,"c1nc2ccc(Nc3nnc(C4CCCC4)s3)nc2cc1NC1CCOC1 (stereo not drawn) [Example 0319, N^2-(5-cyclopentyl-1,3,4-thiadiazol-2-yl)-N^7-(tetrahydrofuran-3-yl)-1,5-naphthyridine-2,7-diamine]"
< 1,< 1,,,"CN1CCN(CCCn2cc(-c3cnc4ccc(Nc5nnc(C6CCCC6)s5)nc4c3)cn2)CC1 [Example 0197, 5-cyclopentyl-N-(7-(1-(3-(4-methylpiperazin-1-yl)propyl)-1H-pyrazol-4-yl)-1,5-naphthyridin-2-yl)-1,3,4-thiadiazole-2-amine]"
1 to 10,< 1,,,Cc1nnc(Nc2ccc3ncc(Nc4cnn(C)c4)cc3n2)s1 [Example 0184]
1 to 10,< 1,,,c1nc2ccc(Nc3nnc(C4CCCC4)s3)nc2cc1N1CCNCC1 [Example 0055]
,,< 1,< 1,"CC(C)c1cnnc(Nc2ccc3ncc(-c4cnn(-c5cccnc5)c4)cc3n2)c1 [Example 0398, N-(5-isopropylpyridazin-3-yl)-7-(1-(pyridin-3-yl)-1H-pyrazol-4-yl)-1,5-naphthyridine-2-amine]"
< 1,< 1,,,"CC(C)c1nnc(Nc2ccc3nccc(Nc4ccncc4)c3n2)s1 [Example 0004, N^2-(5-isopropyl-1,3,4-thiadiazol-2-yl)-N^8-(pyridin-4-yl)-1,5-naphthyridine-2,8-diamine]"
,,1 to 10,< 1,"CC(C)c1cnnc(Nc2ccc3ncc(-c4cnn(-c5ccncc5)c4)cc3n2)c1 [Example 0399, N-(5-isopropylpyridazin-3-yl)-7-(1-(pyridin-4-yl)-1H-pyrazol-4-yl)-1,5-naphthyridine-2-amine]"
< 1,< 1,,,CN1CCN(c2cncc(Nc3cnc4ccc(Nc5nnc(C6CCCC6)s5)nc4c3)c2)CC1 [Example 0102]
,,< 1,1 to 10,CC(C)c1nnc(Nc2ccc3nccc(-c4cnn(CCN5CCOCC5)c4)c3n2)s1 [Example 0274]
,,< 1,< 1,CCC1=C(OC)C(OC)=CC(Nc2cnc3ccc(Nc4nnc(C5CCCC5)s4)nc3c2)C1 (stereo not drawn) [Example 0205]
1 to 10,< 1,,,"CN(c1cnc2ccc(Nc3nnc(C4CCCC4)s3)nc2c1)c1cnn(C)c1 [Example 0195, N^2-(5-cyclopentyl-1,3,4-thiadiazol-2-yl)-N^7-methyl-N^7-(1-methyl-1H-pyrazol-4-yl)-1,5-naphthyridine-2,7-diamine]"
,,1 to 10,1 to 10,"CC(C)c1nnc(Nc2ccc3nccc(N4CCOCC4)c3n2)s1 [Example 0286, 5-isopropyl-N-(8-morpholino-1,5-naphthyridin-2-yl)-1,3,4-thiadiazole-2-amine]"
< 1,1 to 10,,,c1ccc2c(Nc3cnc4ccc(Nc5nnc(C6CCCC6)s5)nc4c3)cncc2c1 [Example 0075]
< 1,< 1,,,Clc1cc(Nc2cnc3ccc(Nc4nnc(C5CCCC5)s4)nc3c2)cnc1-n1cccn1 [Example 0078]
,,< 1,< 1,"CC(C)c1nnc(Nc2ccc3ncc(-c4cnn(C)c4-c4cnn(C)c4)cc3n2)s1 [Example 0476, N-(7-(1′,2-dimethyl-1′H,2H-[3,4′-bipyrazole]-4-yl)-1,5-naphthyridin-2-yl)-5-isopropyl-1,3,4-thiadiazole-2-amine]"
1 to 10,< 1,,,Cc1ccncc1Nc1cnc2ccc(Nc3nnc(C4CCCC4)s3)nc2c1 [Example 0079]
,,10 to 50,< 1,"CCCCCc1nnc(Nc2ccc3ncc(-c4cnn(C)c4)cc3n2)[nH]1 [Example 0299, 7-(1-methyl-1H-pyrazol-4-yl)-N-(5-pentyl-4H-1,2,4-triazol-3-yl)-1,5-naphthyridine-2-amine]"
,,1 to 10,< 1,Cc1cnccc1-c1cnc2ccc(Nc3cc(C(C)C)cnn3)nc2c1 [Example 0361]
1 to 10,< 1,,,"OCCN1CCN(c2cnc3ccc(Nc4nnc(C5CCCC5)s4)nc3c2)CC1 [Example 0046, 2-(4-(6-((5-cyclopentyl-1,3,4-thiadiazol-2-yl)amino)-1,5-naphthyridin-3-yl)piperazin-1-yl)ethanol hydrochloride]"

IC50 (human PI3Kα protein; [2]) [µM],"IC50 [1, 3] [µM]",IC50 (human PI3Kα protein) [µM],IC50 ([1]; ERK2 enzyme assay (1)) [µM],Structure (SMILES)
1 to 10,1 to 10,,,"Cn1cc(-c2cnc3ccc(Nc4ccccn4)nc3c2)cn1 [Example 0036, 7-(1-methyl-1H-pyrazol-4-yl)-N-(pyridin-2-yl)-1,5-naphthyridine-2-amine]"
10 to 50,1 to 10,,,c1ccc(-c2ccc(Nc3cnc4ccc(Nc5nnc(C6CCCC6)s5)nc4c3)cn2)cc1 [Example 0069]
1 to 10,< 1,,,"CC(C)Cc1cnc(Nc2ccc3ncc(-c4cnn(C)c4)cc3n2)s1 [Example 0143, 5-isobutyl-N-(7-(1-methyl-1H-pyrazol-4-yl)-1,5-naphthyridin-2-yl)thiazole-2-amine]"
< 1,< 1,,,"Cn1cc(-c2cnc3ccc(Nc4nnc(S(=O)(=O)Nc5ccccc5)s4)nc3c2)cn1 [Example 0176, 5-((7-(1-methyl-1H-pyrazol-4-yl)-1,5-naphthyridin-2-yl)amino)-N-phenyl-1,3,4-thiadiazole-2-sulfonamide]"
,,< 1,< 1,"CC(C)c1nnc(Nc2ccc3nccc(-c4ccncc4)c3n2)s1 [Example 0269, 5-isopropyl-N-(8-(pyridin-4-yl)-1,5-naphthyridin-2-yl)-1,3,4-thiadiazole-2-amine]"
,,< 1,< 1,c1cncc(Nc2cnc3ccc(Nc4nnc(C5CCCC5)s4)nc3c2)c1 [Example 0207]
10 to 50,1 to 10,,,CCOC(=O)C1CCN(c2cnc3ccc(Nc4nnc(C5CCCC5)s4)nc3c2)CC1 [Example 0057]
,,< 1,< 1,CC(C)c1nnc(Nc2ccc3ncc(-c4cn(C)nc4-c4cnn(C)c4)cc3n2)s1 [Example 0477]
10 to 50,1 to 10,,,Cn1cc(-c2cnc3ccc(Nc4cccnc4)nc3c2)cn1 [Example 0038]
< 1,< 1,,,"CC(C)c1nnc(Nc2ccc3ncc(-c4cn(C)nc4-c4ccccn4)cc3n2)s1 [Example 0136, 5-isopropyl-N-(7-(1-methyl-3-(pyridin-2-yl)-1H-pyrazol-4-yl)-1,5-naphthyridin-2-yl)-1,3,4-thiadiazole-2-amine]"
< 1,< 1,,,c1cc(N2CCOCC2)ncc1Nc1cnc2ccc(Nc3nnc(C4CCCC4)s3)nc2c1 [Example 0066]
1 to 10,< 1,,,"CN(C)CC(=O)N1CCN(c2cnc3ccc(Nc4nnc(C5CCCC5)s4)nc3c2)CC1 [Example 0059, 1-(4-(6-((5-cyclopentyl-1,3,4-thiadiazol-2-yl)amino)-1,5-naphthyridin-3-yl)piperazin-1-yl)-2-(dimethylamino)ethanone]"
,,1 to 10,< 1,"Cc1cnnc(Nc2ccc3ncc(Nc4cncnc4)cc3n2)c1 [Example 0388, N^2-(5-methylpyridazin-3-yl)-N^7-(pyrimidin-5-yl)-1,5-naphthyridine-2,7-diamine]"
10 to 50,< 1,,,CCOC(=O)C1CCCN(c2cnc3ccc(Nc4nnc(C5CCCC5)s4)nc3c2)C1 (stereo not drawn) [Example 0056]
,,< 1,< 1,"OCc1nnc(Nc2ccc3ncc(-c4cnn(CCCN5CCCC5)c4)cc3n2)s1 [Example 0239, (5-((7-(1-(3-(Pyrrolidin-1-yl)propyl)-1H-pyrazol-4-yl)-1,5-naphthyridin-2-yl)amino)-1,3,4-thiadiazol-2-yl)methanol]"
1 to 10,< 1,,,COC[C@@H]1CCCN1c1cnc2ccc(Nc3nnc(C4CCCC4)s3)nc2c1 [Example 0061]
1 to 10,< 1,,,Cn1cc(Nc2cnc3ccc(Nc4nnc(C5CCCC5)s4)nc3c2)cn1 [Example 0194]
< 1,< 1,,,CC(C)OCc1nn(C)cc1-c1cnc2ccc(Nc3nnc(C(C)C)s3)nc2c1 [Example 0146]
,,< 1,< 1,CC(C)c1nnc(Nc2ccc3nccc(-c4ccc(C(N)=O)cc4)c3n2)s1 [Example 0288]

# — patent US9783536B2, “Nitrogen-containing heterocyclic compound or salt thereof” (FUJIFILM Corporation, priority 2013, dated 2017)
